Measurements as given in US20200325177A1, “METHODS OF MAKING STREPTOGRAMIN COMPOSITIONS AND THE USE THEREOF” (THE REGENTS OF THE UNIVERSITY OF CALIFORNIA, priority 2017, published 2020).
Converted amounts (≈) assume the structure as drawn. Where two headings read alike, the source gives them in different places.

Experiments:
Type in all cases: cell-based
E. faecalis = assay: MIC, Gram-positive bacteria: E. faecalis; settings: Enterococcus faecalis, column 1, read-out: Minimal Inhibitory Concentration (MIC) E. faecalis
E. faecium ATCC 35667 = assay: MIC, Gram-positive bacteria: E. faecium ATCC 35667; settings: Enterococcus faecium, ATCC35667, column 2, read-out: Minimal Inhibitory Concentration (MIC) E. faecium ATCC 35667
E. faecium VRE; vanA = assay: MIC, Gram-positive bacteria: E. faecium VRE; vanA; settings: Enterococcus faecium, column 3, read-out: Minimal Inhibitory Concentration (MIC) E. faecium VRE
S. aureus = assay: MIC, Gram-positive bacteria: S. aureus (strains not named); settings: Staphylococcus aureus, read-out: Minimal Inhibitory Concentration (MIC) S. aureus
[1] = system: S. aureus Vat A streptogramin; assay: MIC, Gram-positive bacteria: S. aureus Vat A streptogramin; settings: Staphylococcus aureus; Gram-positive; column 5; read-out: Minimal Inhibitory Concentration (MIC) S. aureus Vat A streptogramin
[2] = system: S. aureus Linezolid-resistant; cfr; assay: MIC, Gram-positive bacteria: S. aureus Linezolid-resistant; cfr; settings: Staphylococcus aureus, column 9, read-out: Minimal Inhibitory Concentration (MIC) S. aureus Linezolid-resistant
S. pneumoniae = assay: MIC, Gram-positive bacteria: S. pneumoniae; settings: Streptococcus pneumoniae, column 10, read-out: Minimal Inhibitory Concentration (MIC) S. pneumoniae
[3] = system: K. pneumoniae multidrug-resistant; assay: MIC, Gram-negative bacteria: K. pneumoniae multidrug-resistant; settings: Klebsiella pneumoniae, read-out: Minimal Inhibitory Concentration (MIC) K. pneumoniae multidrug-resistant
P. aeruginosa ATCC 27853 = assay: MIC, Gram-negative bacteria: P. aeruginosa ATCC 27853; settings: Pseudomonas aeruginosa, ATCC27853, read-out: Minimal Inhibitory Concentration (MIC) P. aeruginosa ATCC 27853
[4] = system: P. aeruginosa MDR clinical isolate; assay: MIC, Gram-negative bacteria: P. aeruginosa MDR clinical isolate; settings: Pseudomonas aeruginosa, read-out: Minimal Inhibitory Concentration (MIC) P. aeruginosa MDR clinical isolate
H. influenzae ATCC 49247 = assay: MIC, Gram-negative bacteria: H. influenzae ATCC 49247; settings: Haemophilus influenzae, ATCC49247, read-out: Minimal Inhibitory Concentration (MIC) H. influenzae ATCC 49247
Gram-Negative Organisms = assay: microbe, parasite or virus in culture
[5] = first unnamed S. aureus column (c4)
[6] = fourth unnamed S. aureus column (c8)
[7] = second unnamed S. aureus column (c6)
[8] = third unnamed S. aureus column (c7)
[9] = Acinetobacter baumannii, ATCC19606, read-out: Minimal Inhibitory Concentration (MIC), A. baumannii ATCC 19606
[10] = Escherichia coli, ATCC25922, read-out: Minimal Inhibitory Concentration (MIC), E. coli ATCC 25922
[11] = Escherichia coli, read-out: Minimal Inhibitory Concentration (MIC), E. coli BAS2006, OMP C, OMP F
[12] = Escherichia coli, read-out: Minimal Inhibitory Concentration (MIC), E. coli olC efflux defective
[13] = Escherichia coli, read-out: Minimal Inhibitory Concentration (MIC), E. coli permeability mutant BAS1314, IMP4213ZAB::TN10
[14] = Escherichia coli, read-out: Minimal Inhibitory Concentration (MIC), E. coli ΔompC768, KanR insert
[15] = Klebsiella pneumoniae, ATCC43816, read-out: Minimal Inhibitory Concentration (MIC), K. pneumoniae ATCC 43816

Structure (SMILES)	MIC (E. faecalis) [µg/mL]	MIC (E. faecium ATCC 35667) [µg/mL]	MIC (E. faecium VRE; vanA) [µg/mL]	MIC (S. aureus; [5]) [µg/mL]	MIC (S. aureus; [6]) [µg/mL]	MIC (S. aureus; [7]) [µg/mL]	MIC (S. aureus; [8]) [µg/mL]	MIC [1] [µg/mL]	MIC [2] [µg/mL]	MIC (S. pneumoniae) [µg/mL]	MIC [3] [µg/mL]	MIC (P. aeruginosa ATCC 27853) [µg/mL]	MIC [4] [µg/mL]	MIC (H. influenzae ATCC 49247) [µg/mL]	MIC (Gram-Negative Organisms; [9]) [µg/mL]	MIC (Gram-Negative Organisms; [10]) [µg/mL]	MIC (Gram-Negative Organisms; [11]) [µg/mL]	MIC (Gram-Negative Organisms; [12]) [µg/mL]	MIC (Gram-Negative Organisms; [13]) [µg/mL]	MIC (Gram-Negative Organisms; [15]) [µg/mL]	also measured
CC1=C\[C@@H](O)CC(=O)Cc2nc(co2)C(=O)N2CCC[C@@H]2C(=O)O[C@H]([C@H](C)COC(=O)Nc2ccc(Br)nc2)[C@H](C)/C=C/C(=O)NC\C=C\1 [SA0110209]	> 64	16 (≈ 21.5 µM)	> 64	16 (≈ 21.5 µM)	16 (≈ 21.5 µM)	16 (≈ 21.5 µM)	> 64	> 64	> 64	16 (≈ 21.5 µM)	> 64	> 64	> 64	8 (≈ 10.8 µM)	> 64	> 64	> 64	2 (≈ 2.69 µM)	2 (≈ 2.69 µM)	> 64	MIC (Gram-Negative Organisms; [14]): > 64 µg/mL
CC1=C\[C@@H](O)CC(=O)Cc2nc(co2)C(=O)N2CCC[C@@H]2C(=O)O[C@H]([C@@H](C)COC(=O)Nc2cccnc2)[C@H](C)/C=C/C(=O)NC\C=C\1 [SA0110067]	> 64	32 (≈ 48.2 µM)	> 64	> 64	64 (≈ 96.4 µM)	> 64	> 64	> 64	> 64	32 (≈ 48.2 µM)	> 64	> 64	> 64	> 64	> 64	> 64	64 (≈ 96.4 µM)	8 (≈ 12.1 µM)	32 (≈ 48.2 µM)	> 64	
CC1=C\[C@@H](O)CC(=O)Cc2nc(co2)C(=O)N2CCC[C@@H]2C(=O)O[C@H]([C@@H](C)COC(=O)Nc2ccccc2)[C@H](C)/C=C/C(=O)NC\C=C\1 [SA0110043]	> 64	16 (≈ 24.1 µM)	64 (≈ 96.6 µM)	32 (≈ 48.3 µM)	32 (≈ 48.3 µM)	32 (≈ 48.3 µM)	64 (≈ 96.6 µM)	> 64	> 64	16 (≈ 24.1 µM)	> 64	> 64	> 64	32 (≈ 48.3 µM)	> 64	> 64	16 (≈ 24.1 µM)	2 (≈ 3.02 µM)	8 (≈ 12.1 µM)	> 64	
CC1=C\[C@@H](O)CC(=O)Cc2nc(co2)C(=O)N2CCC[C@@H]2C(=O)O[C@H]([C@@H](C)CN2CCN(C)CC2)[C@H](C)/C=C/C(=O)NC\C=C\1 [SA0110241]	> 64	> 64	> 64	> 64	> 64	> 64	> 64	> 64	> 64	> 64	> 64	> 64	> 64	> 64	> 64	> 64	> 64	> 64	> 64	> 64	MIC (Gram-Negative Organisms; [14]): > 64 µg/mL
CC1=C\[C@@H](O)CC(=O)Cc2nc(co2)C(=O)N[C@H](CCCCN)C(=O)O[C@H](C(C)C)[C@H](C)/C=C/C(=O)NC\C=C\1 [SA0202094]	> 64	> 64	> 64	> 64	> 64	> 64	> 64	> 64	> 64	> 64	> 64	> 64	> 64	> 64	> 64	> 64	> 64	> 64	32 (≈ 57.3 µM)	> 64	MIC (Gram-Negative Organisms; [14]): > 64 µg/mL
CC1=C\[C@@H](O)CC(=O)Cc2nc(co2)C(=O)N2CCC[C@@H]2C(=O)O[C@H]([C@@H](C)COC(=O)Nc2ccnc(Br)c2)[C@H](C)/C=C/C(=O)NC\C=C\1 [SA0110081]	> 64	32 (≈ 43.1 µM)	> 64	> 64	32 (≈ 43.1 µM)	> 64	> 64	> 64	> 64	32 (≈ 43.1 µM)	> 64	> 64	> 64	> 64	> 64	> 64	32 (≈ 43.1 µM)	4 (≈ 5.39 µM)	32 (≈ 43.1 µM)	> 64	
CC1=C\[C@@H](O)CC(=O)Cc2nc(co2)C(=O)N2CCC[C@@H]2C(=O)O[C@H]([C@@H](C)COC(=O)Nc2cc(C)on2)[C@H](C)/C=C/C(=O)NC\C=C\1 [SA0110115]	> 64	32 (≈ 47.9 µM)	> 64	> 64	64 (≈ 95.8 µM)	> 64	> 64	> 64	> 64	16 (≈ 24 µM)	> 64	> 64	> 64	64 (≈ 95.8 µM)	> 64	> 64	64 (≈ 95.8 µM)	8 (≈ 12 µM)	16 (≈ 24 µM)	> 64	
CC1=C\[C@@H](O)CC(=O)Cc2nc(co2)C(=O)N2CCC[C@@H]2C(=O)O[C@H]([C@H](C)COC(=O)Nc2ccccn2)[C@H](C)/C=C/C(=O)NC\C=C\1 [SA0110222]	> 64	32 (≈ 48.2 µM)	64 (≈ 96.4 µM)	> 64	64 (≈ 96.4 µM)	> 64	> 64	> 64	> 64	32 (≈ 48.2 µM)	> 64	> 64	> 64	16 (≈ 24.1 µM)	> 64	> 64	64 (≈ 96.4 µM)	4 (≈ 6.03 µM)	16 (≈ 24.1 µM)	> 64	MIC (Gram-Negative Organisms; [14]): > 64 µg/mL
CC1=C\[C@@H](O)CC(=O)Cc2nc(co2)C(=O)N2CCC[C@@H]2C(=O)O[C@H]([C@@H](C)COC(=O)Nc2cnccn2)[C@H](C)/C=C/C(=O)NC\C=C\1 [SA0110101]	> 64	64 (≈ 96.3 µM)	> 64	> 64	> 64	> 64	> 64	> 64	> 64	32 (≈ 48.1 µM)	> 64	> 64	> 64	64 (≈ 96.3 µM)	> 64	> 64	64 (≈ 96.3 µM)	8 (≈ 12 µM)	16 (≈ 24.1 µM)	> 64	
CC1=C\[C@@H](O)CC(=O)Cc2nc(co2)C(=O)N2CCC[C@@H]2C(=O)O[C@H]([C@@H](C)CN2CCOCC2)[C@H](C)/C=C/C(=O)NC\C=C\1 [SA0110161]	> 64	> 64	> 64	> 64	> 64	> 64	> 64	> 64	> 64	> 64	> 64	> 64	> 64	> 64	> 64	> 64	> 64	> 64	> 64	> 64	MIC (Gram-Negative Organisms; [14]): > 64 µg/mL
CC1=C\[C@@H](O)CC(=O)Cc2nc(co2)C(=O)N2CCC=C2C(=O)O[C@H](C(C)C)[C@H](C)/C=C/C(=O)NC\C=C\1 [virginiamycin M1, Virginiamycin M1, reference compound]	32 (≈ 60.9 µM)	2 (≈ 3.81 µM)	4 (≈ 7.61 µM)	4 (≈ 7.61 µM)	2 (≈ 3.81 µM)	2 (≈ 3.81 µM)	8 (≈ 15.2 µM)	32 (≈ 60.9 µM)	> 64	4 (≈ 7.61 µM)	> 64	> 64	> 64	1 (≈ 1.9 µM)	> 64	> 64	> 64	2 (≈ 3.81 µM)	0.25 (≈ 0.476 µM)	> 64	
